According to patent US20130288323A1, “MICROBIAL PRODUCTION OF POLYHYDROXYALKANOATES” (UNIVERSITY OF MANITOBA, priority 2010, published 2013):

Assays:
[1] = tested on: P. putida LS46; test: Growth of P. putida LS46 in the presence of salicylic acid; assay type: cell-based, Pseudomonas putida; details: salicylic acid at 10 mM
Method: (§1) Salicylic acid has been used as an inhibitor of β-oxidation in plant, animal, and bacterial cells. […] Salicylic acid at 10 mM inhibited P. putida LS46 growth. Therefore, 1-5 mM concentration of salicylic acid was studied for its effect on mcl-PHA production by P. putida LS46. To separate volumes of Ramsey's liquid medium supplemented with 2% of glucose were added: (i) no salicylic acid (control), (ii) 1.0 nM salicylic acid, (iii) 2.5 mM salicylic acid, or (iv) 5.0 salicylic acid. After sterilization, the liquid media were dispensed into flasks which were then each inoculated with 1% inoculum of P. putida LS46, and then cultured for 48 h. Cultures were then harvested and their cdw, the percentage accumulation of mcl-PHAs in the cells, and the mol % monomer composition of C8 […] the mcl-PHAs were determined. […] 3-hydroxyoctanoate decreased, while 3-hydroxydecanoate increased, in the presence of 2.5 mM and 5.0 mM salicylic acid, compared with the control (Table 6).

[2] = tested on: P. putida LS46; test: Effects of salicylic acid on production of mcl-PHAs by P. putida LS46; assay type: cell-based, Pseudomonas putida; details: Ramsey's medium + 2% glucose, 48 h
Method: Six of the microbial isolates (i.e., LS1, LS5, LS33, LS34, LS39, LS46) that produced epifluorescence under UV illumination were separately cultured for 72 h in: (i) 200 mL LB broth, and (ii) 200 mL LB broth supplemented with 3 g/L glucose. The microbial cells were centrifuged at 4500 g for 20 min in a Sorvall RC6-Plus centrifuge. The microbial pellets were washed twice in 0.85% NaCl and then dried at 80° C. for 48 h. The intracellular PHA contents and PHA composition were determined by GC-MS following the method taught by Braunegg et al. (1978, Eur. J. Appl. Microbiol. Biotechnol. 6:29-37). Dried cells (20 mg) were mixed with 1 mL chloroform and 1 mL methanol containing 15% sulphuric acid. Benzoic acid (1 mg/mL) was used as an internal standard. The suspensions were refluxed at 100° C. for 4 h, after which, 0.5 ml of water were added to each suspension. The mixtures were centrifuged at 4000×g. The lower chloroform layers were separated and analyzed using a GC-MS fitted FID detector and aHP-5 capillary column. The initial oven temperature was set at 75° C. for 6 min and then was increased to 265° C. with a ramping rate of 20° C./min.
as §1, with “To separate volumes of Ramsey's liquid medium supplemented with 2% of glucose were added: (i) no salicylic acid (control), (ii) 1.0 nM salicylic acid, (iii) 2.5 mM salicylic acid, or (iv) 5.0 salicylic acid.” left out

[3] = tested on: P. putida LS46; test: as above; assay type: cell-based, Pseudomonas putida; details: 1.0 mM salicylic acid; Ramsey's medium + 2% glucose; 48 h
[4] = tested on: P. aeruginosa; details: salicylic acid between 5 mM and 60 mM in growth medium; cited from earlier work

SMILES: O=C(O)c1ccccc1O [Salicylic acid, salicylic acid]
- growth of P. putida LS46 [1]: inhibited
- 3-hydroxyalkanoate monomer content C10 ([2]; 1.0 mM salicylic acid): 47.90 mol %
- 3-hydroxyalkanoate monomer content C12 ([2]; 1.0 mM salicylic acid): 1.91 mol %
- CDW ([2]; 1.0 mM salicylic acid): 3.08 g/L
- 3-hydroxyalkanoate monomer content C6 ([2]; 2.5 mM salicylic acid): 3.39 mol %
- 3-hydroxyalkanoate monomer content C8 ([2]; 2.5 mM salicylic acid): 44.06 mol %
- 3-hydroxyalkanoate monomer content C10 ([2]; 2.5 mM salicylic acid): 52.03 mol %
- 3-hydroxyalkanoate monomer content C12 ([2]; 2.5 mM salicylic acid): 0.93 mol %
- CDW ([2]; 2.5 mM salicylic acid): 2.89 g/L
- PHA content ([2]; 2.5 mM salicylic acid): 28.90 % CDW
- 3-hydroxyalkanoate monomer content C6 ([2]; 5.0 mM salicylic acid): 2.46 mol %
- 3-hydroxyalkanoate monomer content C8 ([2]; 5.0 mM salicylic acid): 42.49 mol %
- 3-hydroxyalkanoate monomer content C10 ([2]; 5.0 mM salicylic acid): 53.36 mol %
- 3-hydroxyalkanoate monomer content C12 ([2]; 5.0 mM salicylic acid): 0.66 mol %
- CDW ([2]; 5.0 mM salicylic acid): 2.64 g/L
- PHA content ([2]; 5.0 mM salicylic acid): 21.89 % CDW
- 3-hydroxyalkanoate monomer content C6 [3]: 3.97 mol %
- 3-hydroxyalkanoate monomer content C8 [3]: 46.30 mol %
- PHA content [3]: 26.07 % CDW
- monomer composition of mcl-PHAs produced by P. aeruginosa [4]: altered the monomer composition
